How the values were obtained:
M21 human melanoma cells = test: Apoptosis by FITC-Annexin-V staining / FACS of M21 melanoma cells; type: cell-based
Protocol: With reference to FIG. 1A, the maternal human melanoma cells M21, expressing integrin αvβ3, and a subpopulation, M21L, lacking integrin αvβ3 were cultured in a three-dimensional collagen gel (3D-collagen). At indicated times, apoptosis was detected by FITC-Annexin-V staining.
Apoptosis was analyzed in M21 cells grown under 2D culture conditions or within 3D-collagen with or without PRIMA-1 treatment for 16, 24, 36 and 48 h. […] This also verifies the results using dn p53 and p53-siRNA (FIG. 3) in an independent manner.

wt p53 = target: T1, wt p53 (Homo sapiens, UniProt P04637); test: p53 conformation by ELISA with Pab 1620, Pab 240 and DO 1 in melanoma cells in 3D-collagen; type: cell-based
T1 construct: endogenous in cells; host or cells: M21, M21L and AA human melanoma cells
Protocol: Data shown in FIG. 2D represents Pab 1620 and Pab 240 reactivity as percentage of D01 reactivity (total p53).
PRIMA-1 is a substance known from WO0224692 to be able to reactivate the apoptosis-inducing function of mutant p53 proteins. […] The p53 conformation was examined as described above. […] To this end, p53 conformation was also analyzed in AA human melanoma cells expressing αv β3 integrin and wt p53 before and after incubation within 3D collagen (FIG. 4B).

p53 = test: Western blot of p53 acetylation and p53 target proteins in M21 tumours grown in nude mice after a single PRIMA-1 injection; type: in vivo; details: 24 h and 36 h after single injection
Text: Thus, acetylation of p53-Lys382 is potentially involved in p53 activation by PRIMA-1, while Apaf-1 and PUMA are potential downstream mediators of PRIMA-1- and p53-induced melanoma cell apoptosis in vivo.

[1] = tested on: C8161 melanoma cells (truncated, unfunctional p53); test: C8161 melanoma tumour growth s.c. in C57/BL nude mice; type: in vivo; details: 100 mg/kg for 6 d starting 6 d after inoculation
Protocol: (§1) Tumour volumes were monitored for melanoma growth, as described in the preceding paragraph. Tumour volume over time was determined by the formula: width^2×length×0,52. […] In the Figure, ♦ represents M21; □ M21L; ▴ Lp53His175-0; and ★ Lp53His175-8. M21Lp53His175-0 and M21Lp53His175-8 formed large tumours similar in size to M21 tumours. However, M21L cells lacking integrin αvβ3 typically grew only minimal or developed no tumours.
(§2) To test if restoration of an active wt p53 conformation by PRIMA-1 could also induce melanoma cell apoptosis in vivo and thereby block melanoma tumour growth, M21 and C8161 melanoma cells (1,5×10^6) were injected s.c. into the back of 6-week-old C57/BL nude mice. The mice were treated with or without PRIMA-1 (100 mg/kg) for 6 d starting 6 d after tumour innoculation.

Caspase 9 = test: Western blot of Caspase 9 activation in M21 tumours grown in nude mice; type: in vivo; details: 24 h and 36 h after single injection
Text: Caspase 9 is therefore a potential downstream effector of PRIMA-1- and p53-induced apoptosis in melanoma cells in vivo.

[2] = tested on: M21 melanoma cells (wt p53); test: M21 melanoma tumour growth s.c. in C57/BL nude mice; type: in vivo; details: 100 mg/kg for 6 d starting 6 d after inoculation, versus PBS control
Protocol: as §1, §2

caspase-8 = test: Western blot for cleavage of caspase-8, control Jurkat cells; type: cell-based; details: cycloheximide-treated Jurkate cells

Molecule: Z-LEHD-FMK x TFA [reference compound]
- effect on PRIMA-1 induced apoptosis (M21 human melanoma cells; 36 h in 3D-collagen, with 80 μM PRIMA-1): blocked

Molecule: O=C1C2CCN(CC2)C1(CO)CO [PRIMA-1, 2,2-bis(hydroxymethyl)-1-azabicyclo[2.2.2]octan-3-one]
- p53 conformation (Pab 1620 / Pab 240 reactivity) (wt p53; AA human melanoma cells (αvβ3, wt p53), 100 μM PRIMA-1, 5 d in 3D collagen): enforced p53 into an active conformation
- p53 conformation (Pab 1620 / Pab 240 reactivity) (wt p53; M21 cells (αvβ3+), 100 μM PRIMA-1, 3D-collagen, 7 d): restore active p53 conformation from an unfolded inactive state
- Apaf-1 protein level (p53): induces
- PUMA protein level (p53): induces
- acetylation of p53-Lys382 (p53): induces
- melanoma growth (mean tumour volume) [1]: no effect
- apoptosis (Annexin V staining) (M21 human melanoma cells; 100 μM PRIMA-1, 16, 24, 36 and 48 h, 3D collagen versus 2D culture): promoted apoptosis in M21 cells (αvβ3+) within 3D collagen to a much higher degree than in 2D culture
- apoptosis (Annexin-V staining) (M21 human melanoma cells; 36 h in 3D collagen, 80 μM PRIMA-1): induces melanoma cell apoptosis
- activation of Caspase 9 (Caspase 9): activation of Caspase 9
- melanoma growth (mean tumour volume) [2]: significantly inhibited

Molecule: C[C@@H]1C[C@@H]([C@H](O)CC2CC(=O)NC(=O)C2)C(=O)[C@@H](C)C1 [cycloheximide]
- caspase-8 cleavage (caspase-8): displayed caspase-8 cleavage
